# System: cellular oxygen consumption
# Assay: Cellular oxygen consumption
# Assay type: cell-based
# Settings: XF24 Extracellular Flux Analyzer
# Description: Cells treated with oligomycin or rotenone/antimycin A, as expected, compensated for the loss of oxidative phosphorylation by increasing glycolysis, reducing the bound NADH fraction (FIG. 51F). Conversely, the glycolysis inhibitor 2-DG and starvation increased oxidative phosphorylation and the bound to free NADH ratio. SH-BC-893 mimicked the effect of amino acid and glucose starvation, increasing the bound NADH fraction and cellular oxygen consumption (FIGS. 51F and 51G). Cells responded similarly to the anti-inflammatory drug FTY720. Thus, the metabolic changes triggered by SH-BC-893 parallel those seen in cells with restricted access to key metabolic substrates.
# Cell analysis: Viability and 4F2hc expression are determined by vital dye exclusion and flow cytometry. Oxygen consumption is measured with an XF24 Extracellular Flux Analyzer (Seahorse Bioscience); values are normalized to total protein. Confocal microscopy is performed on either a Zeiss LSM780 or a Nikon Eclipse Ti; vacuolation was monitored using a Nikon TE2000-S equipped with DIC filters. Anchorage-independent growth of SW620 cells is measured in DMEM-10 containing 0.35% agarose with a 0.5% agarose bottom layer. […] Plates were incubated at 37° C. in a humidified atmosphere containing 5% CO2 and colonies were counted after 12 days.
compound,measurement,value
"CCCCCCCCc1ccc([C@H]2CCN[C@@H]2CO)cc1.Cl [Compound 5, (2S,3R)-2-(hydroxymethyl)-3-(4-octylphenyl)Pyrrolidinium chloride]",cellular oxygen consumption,increasing
